Target: T1, tyrosinase
T1 construct: gene PPO1
Assay: absorbance at […] nm, tyrosinase inhibition in 96-well plate
Assay type: biochemical
Details: L-tyrosine substrate ([…] µL of […] in […] µL), phosphate buffer pH […], room temperature, […] min

IC50: 1030 nM
SMILES: COc1cc(C(CO)C(c2ccc(O)c(OC)c2)c2ccc(O)c(OC)c2)ccc1O (stereo not shown) [quebecol]

Source: publication PMC9858213, “What Is Authentic Maple Water? A Twelve-Month Shelf-Life Study of the Chemical Composition of Maple Water and Its Biological Activities” (Foods, 2023)
